Experiments:
[1] = in vivo; details: iv, 20 mg/kg
[2] = in vitro; details: human
[3] = cited from earlier work
[4] = system: SARS-CoV-2 SA/2020 (β, lineage B.1.351); experiment: microbe, parasite or virus in culture; assay type: cell-based; details: Severe acute respiratory syndrome coronavirus 2, Vero C1008; SA/2020, VeroE6, mean n=3
[5] = Toxicity-testing across the cell panel (range); details: human, African green monkey, hamster

With `N#C[C@@]1(c2ccc3c(N)ncnn23)O[C@H](CO)[C@@H](O)[C@H]1O` [GS-441524] as the compound, how does the AUC(0-t) [1] read?
Its AUC(0-t) is 81.1 µM·h.

And the Cmax [1]?
The Cmax was 54.2 µM.

What about the clearance [1] of the same compound?
Its clearance is 14.3 mL/min/kg.

What about the half-life [1] of the same compound?
The half-life was 3.4 h.

What about the viability at 72 h, 3.704 µM ([2]; female, % cell viability) of the same compound?
The viability at 72 h, 3.704 µM was 90%.

What about the CC50 at 72 h [2] of the same compound?
The CC50 at 72 h was greater than 100 µM.

And the viability at 72 h, 100 µM ([2]; % cell viability)?
Its viability at 72 h, 100 µM is 62%.

What about the oral bioavailability ([3]; SARS-CoV2 mouse model report, ref Li et al (J. Med Chem. 2021)) of the same compound?
The oral bioavailability was 5%.

And the oral availability ([3]; mice, ref Wei et al. (Bioorg. Med Chem Lett 2021, 116364))?
Its oral availability is 16%.

And the EC50 [4]?
The EC50 was 0.34 µM.

What about the CC50 at 72 h [5] of the same compound?
Its CC50 at 72 h is greater than 100 µM.

— PMC8571282 (Nature Communications, 2021)
